Measured values published in PubChem BioAssay (NCI).
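Assay format: 96-well plates, 48-hour exposure. At the TGI there is no net growth.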

Legend:
Assay in all cases: DTP human tumour cell line panel, 48 h
NCI-H460 lung = test system: NCI-H460 lung
CAKI-1 renal = test system: CAKI-1 renal
OVCAR-3 ovarian = test system: OVCAR-3 ovarian
SNB-19 CNS = test system: SNB-19 CNS
SF-268 CNS = test system: SF-268 CNS
BT-549 breast = test system: BT-549 breast
NCI/ADR-RES ovarian = test system: NCI/ADR-RES ovarian
OVCAR-5 ovarian = test system: OVCAR-5 ovarian
MCF7 breast = test system: MCF7 breast
LOX IMVI melanoma = test system: LOX IMVI melanoma
UACC-62 melanoma = test system: UACC-62 melanoma
PC-3 prostate = test system: PC-3 prostate
SNB-75 CNS = test system: SNB-75 CNS
SK-MEL-5 melanoma = test system: SK-MEL-5 melanoma
HOP-62 NSCLC = test system: HOP-62 NSCLC
COLO 205 colon = test system: COLO 205 colon
MOLT-4 leukemia = test system: MOLT-4 leukemia
MDA-MB-231 breast = test system: MDA-MB-231 breast
A549 NSCLC = test system: A549 NSCLC
HT29 colon = test system: HT29 colon
SN12C renal = test system: SN12C renal
786-0 renal = test system: 786-0 renal
EKVX NSCLC = test system: EKVX NSCLC
MDA-N = test system: MDA-N
U251 CNS = test system: U251 CNS
SK-MEL-28 melanoma = test system: SK-MEL-28 melanoma
RPMI-8226 leukemia = test system: RPMI-8226 leukemia
HS 578T breast = test system: HS 578T breast
RXF 393 renal = test system: RXF 393 renal
A498 renal = test system: A498 renal
M14 melanoma = test system: M14 melanoma
TK-10 renal = test system: TK-10 renal
ACHN renal = test system: ACHN renal
K-562 leukemia = test system: K-562 leukemia
DU-145 prostate = test system: DU-145 prostate
IGROV1 ovarian = test system: IGROV1 ovarian
SR leukemia = test system: SR leukemia
UACC-257 melanoma = test system: UACC-257 melanoma
SK-OV-3 ovarian = test system: SK-OV-3 ovarian
HL-60(TB) leukemia = test system: HL-60(TB) leukemia
SF-295 CNS = test system: SF-295 CNS
HCC-2998 colon = test system: HCC-2998 colon
SW-620 colon = test system: SW-620 colon
SF-539 CNS = test system: SF-539 CNS
OVCAR-4 ovarian = test system: OVCAR-4 ovarian
KM12 colon = test system: KM12 colon
NCI-H23 lung = test system: NCI-H23 lung
NCI-H226 lung = test system: NCI-H226 lung
HCT-15 colon = test system: HCT-15 colon
MDA-MB-435 = test system: MDA-MB-435
UO-31 renal = test system: UO-31 renal
HCT-116 colon = test system: HCT-116 colon
MALME-3M melanoma = test system: MALME-3M melanoma
CCRF-CEM leukemia = test system: CCRF-CEM leukemia
OVCAR-8 ovarian = test system: OVCAR-8 ovarian
HOP-92 NSCLC = test system: HOP-92 NSCLC
SK-MEL-2 melanoma = test system: SK-MEL-2 melanoma
NCI-H522 lung = test system: NCI-H522 lung

Measured: TGI

CC1(C)CC(=O)C2=C(C1)NC1=C(C2)C(=O)CC(C)(C)C1
> 100 µM: NCI-H460 lung | CAKI-1 renal | OVCAR-3 ovarian | SNB-19 CNS | SF-268 CNS | BT-549 breast | NCI/ADR-RES ovarian | OVCAR-5 ovarian | MCF7 breast | LOX IMVI melanoma | UACC-62 melanoma | PC-3 prostate | SNB-75 CNS | SK-MEL-5 melanoma | HOP-62 NSCLC | COLO 205 colon | MOLT-4 leukemia | MDA-MB-231 breast | A549 NSCLC | HT29 colon | SN12C renal | 786-0 renal | EKVX NSCLC | MDA-N | U251 CNS | SK-MEL-28 melanoma | RPMI-8226 leukemia | HS 578T breast | RXF 393 renal | A498 renal | M14 melanoma | TK-10 renal | ACHN renal | K-562 leukemia | DU-145 prostate | IGROV1 ovarian | SR leukemia | UACC-257 melanoma | SK-OV-3 ovarian | HL-60(TB) leukemia | SF-295 CNS | HCC-2998 colon | SW-620 colon | SF-539 CNS | OVCAR-4 ovarian | KM12 colon | NCI-H23 lung | NCI-H226 lung | HCT-15 colon | MDA-MB-435 | UO-31 renal | HCT-116 colon | MALME-3M melanoma | CCRF-CEM leukemia | OVCAR-8 ovarian

CC(C)CC(=O)NC(C(=O)NC(C(=O)NC(CC(C)C)C(O)CC(=O)NC(C)C(=O)NC(CC(C)C)C(O)CC(=O)O)C(C)C)C(C)C (stereo not given)
> 100 µM: NCI-H460 lung | CAKI-1 renal | OVCAR-3 ovarian | SNB-19 CNS | HOP-92 NSCLC | SF-268 CNS | BT-549 breast | NCI/ADR-RES ovarian | OVCAR-5 ovarian | MCF7 breast | LOX IMVI melanoma | UACC-62 melanoma | PC-3 prostate | SNB-75 CNS | SK-MEL-5 melanoma | HOP-62 NSCLC | COLO 205 colon | MOLT-4 leukemia | MDA-MB-231 breast | A549 NSCLC | HT29 colon | SN12C renal | 786-0 renal | EKVX NSCLC | MDA-N | U251 CNS | SK-MEL-28 melanoma | RPMI-8226 leukemia | A498 renal | M14 melanoma | TK-10 renal | ACHN renal | K-562 leukemia | DU-145 prostate | IGROV1 ovarian | SR leukemia | UACC-257 melanoma | SK-OV-3 ovarian | SF-295 CNS | HCC-2998 colon | SW-620 colon | SF-539 CNS | OVCAR-4 ovarian | KM12 colon | SK-MEL-2 melanoma | NCI-H23 lung | NCI-H226 lung | NCI-H522 lung | HCT-15 colon | MDA-MB-435 | UO-31 renal | HCT-116 colon | MALME-3M melanoma | CCRF-CEM leukemia | OVCAR-8 ovarian
